From PubChem BioAssay AID179 (DTP/NCI, 2004)
The source made the active and inactive calls.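 The calls were made as follows: active = compounds giving half or more protection of infected cells from virus-caused growth loss, again on retest; inactive = the rest.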 Where a SMILES comes first, the peptide text is derived from it.

Tested on: CEM cells HIV-1 protection, formazan growth assay
Test: NCI AIDS Antiviral Assay
Conditions: for IC50: measured here: growth of uninfected CEM cells
Procedure, shortened: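 Soluble formazan readout of cell growth; CEM cells ± HIV-1; 5 drug concs. ≥50% protection → retest; ≥50% again = moderately active; reproducible 100% = confirmed active.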

SMILES | EC50 | IC50 | outcome
O=c1[nH]c2cc(C(F)(F)F)ccc2nc1Cc1ccccc1 | > 200 µM | > 200 µM | –
O=S(=O)(O)C(O)C(F)(F)C(F)(F)C(F)(F)C(F)(F)C(O)S(=O)(=O)O (centres undefined) | > 200 µM | 155 µM | –
C=C(C)C(=O)NC(N)=NC#N | > 1620 µM | 28.8 µM | –
CC(C)CC(N)C(=O)NC(CC(=O)O)C(=O)NC(CCCCN)C(=O)NC(C)C(=O)NC(CO)C(=O)NC(Cc1ccc(O)cc1)C(=O)NC(CO)C(=O)NC(C(=O)O)C(C)O (centres undefined) (H-LDKASYST-OH; configuration not given here) | > 56.2 µM | > 56.2 µM | –
CCOC(=O)NC(=O)c1cn(CCCCCOC(=O)NCCCCCCNC(=O)OCCCCCn2cc(C(=O)NC(=O)OCC)c(=O)[nH]c2=O)c(=O)[nH]c1=O | – | – | inactive
CCOC(=O)C(=O)CC1=NC2CCCCC2N(C)C1=O (centres undefined) | > 200 µM | > 200 µM | –
COc1cc(CNC(=S)CCCCCCCCCCC(C)C)ccc1O | – | – | inactive
CC1CCC2(CC1)CC(=O)N(N1CCCCC1)C2=O (centres undefined) | > 200 µM | > 200 µM | –
COC1C(/C(=N\O)n2cnc3c(Cl)ncnc32)OC2OC(C)(C)OC21 (centres undefined) | > 200 µM | > 100 µM | –
Cc1cc(C)nc(NS(=O)(=O)c2ccc(Nc3c4ccccc4nc4c(C(=O)NCCCN(CCO)CCO)cccc34)cc2)n1 | > 200 µM | 6.46 µM | –
COc1ccc(/C=C2/C(=O)N(C(=O)c3ccccc3O)N=C2C)cc1 | > 56.2 µM | 0.0501 µM | –
CN(/N=C/C=N/N(C)C1=NCCN1)C1=NCCN1 | > 200 µM | > 200 µM | –
O=c1[nH]c(=O)n(C2CC(O)C(COP(=O)(On3nnc4ccccc43)N3CCCCC3)O2)cc1F (centres undefined) | > 200 µM | 0.0631 µM | –
COc1ccc2c(c1)N(C(C)=O)CN1C(=O)CCC21 (centres undefined) | – | – | inactive
COC(=O)n1c(=O)n(-c2ccccc2)c(=O)n1C(=O)OC | 155 µM | 195 µM | –
COc1c(OC)c(OC)c(-c2cc(=O)c3c(OC)c(OC)c(OC)c(OC)c3o2)c(OC)c1OC | > 200 µM | 56.2 µM | –
[N-]=[N+]=NCc1nc(N)c2c3c(sc2n1)CCCC3 | > 200 µM | 1.12 µM | –
O=c1[nH]c2ccccc2c(O)c1-[n+]1ccccc1 | > 200 µM | > 200 µM | –
Cc1nc2ccc(NC(=S)Nc3ccccc3)cc2c(=O)n1-c1ccccc1 | > 200 µM | > 200 µM | –
CC(=O)Nc1ccccc1S(=O)c1ccccc1 (centres undefined) | > 229 µM | > 229 µM | –
CN1CCN(C(=O)CCNC(=O)Cc2ccc(C(=O)c3ccccc3)cc2)CC1 | > 200 µM | 64.6 µM | –

SMILES | EC50 | IC50 | outcome
NC(=O)Nn1c2c(c3c1CCCC3)CCCC2 | – | – | inactive
C[N+](C)([O-])CCNC(=O)c1cccc2cc3ccccc3nc12 | – | – | inactive
C=Cc1cc[n+](CCCCC[n+]2ccc(C=C)cc2)cc1 | > 100 µM | > 100 µM | –
c1ccc2cc(C3NCCc4[nH]cnc43)ccc2c1 (centres undefined) | > 28.8 µM | > 28.8 µM | –
N/N=C(/CS(=O)(=O)c1ccc(Cl)cc1)c1ccccc1 | > 100 µM | > 100 µM | –
C[C@]12CCC3[C@@H](CC[C@@H]4c5nonc5CC[C@]34C)C1C/C(=N/O)C2=O (some centres undefined) | > 105 µM | 95.5 µM | –
S=C(N/N=C/c1ccccc1)NC1CC(c2ccccc2)Oc2ccccc21 (centres undefined) | – | – | inactive
Cc1cc2c(-c3ccccc3)cc(=O)[nH]c2cc1N | 186 µM | > 200 µM | –
CN(C)CCCSCC(COc1nccc(-c2ccc(-c3ccc(-c4ccnc(OCC(CSCCCN(C)C)SCCCN(C)C)n4)s3)s2)n1)SCCCN(C)C (centres undefined) | > 4.27 µM | 2.69 µM | –
CN(C)c1c(-c2ccccc2)cc(-c2ccccc2)[nH]c1=O | > 64.6 µM | > 64.6 µM | –
S=c1[nH]nc(CCCCCCCCc2n[nH]c(=S)o2)o1 | – | – | inactive
O=C1COC(c2ccccc2)C(c2ccccc2)(c2ccccc2)O1 (centres undefined) | > 15.8 µM | > 15.8 µM | –
COc1ccc(-c2nnc3n(C)c4ccccc4n3c2=O)cc1 | > 100 µM | > 100 µM | –
N=c1nnc(=O)c2c(s1)-n1ncc(C(=O)O)c1NN2 | > 81.3 µM | > 81.3 µM | –
O=C(CSc1nc(-c2ccccc2)c(-c2ccccc2)[nH]1)NNC(=S)Nc1ccccc1 | > 56.2 µM | 29.5 µM | –
CCCCCC(=O)Nc1nc[nH]c1C(N)=O | > 200 µM | > 200 µM | –
N#C/C(=C\c1cc(Br)cc(Br)c1O)c1ccc([N+](=O)[O-])cc1 | > 100 µM | 13.5 µM | –
COCC[P+](c1ccccc1)(c1ccccc1)c1ccccc1 | > 200 µM | 7.76 µM | –
C=CC(C)(C)n1cc(C2=C(O)C(=O)C(c3cn(C(C)(C)C=C)c4ccccc34)=C(O)C2=O)c2ccccc21 | > 22.4 µM | 12.3 µM | –
Cc1ccc(/C=N/Nc2cc(C)c3ccccc3n2)s1 | > 200 µM | 10.7 µM | –
NC(Cc1ccc(O)cn1)C(=O)O (centres undefined) | > 200 µM | > 200 µM | –

SMILES | EC50 | IC50 | outcome
Cc1ccc(S(=O)(=O)C2=Cc3ccc(C(F)(F)F)cc3C2(O)c2cccc(C(F)(F)F)c2)cc1 (centres undefined) | > 200 µM | 2.19 µM | –
C[C@]12CCC(=O)C=C1CC[C@@H]1[C@@H]2[C@@H](O)C[C@@]2(C)[C@H]1CC[C@]2(O)C(=O)COC(=O)CCC(=O)O | > 200 µM | 6.03 µM | –
COC(=O)/C=C(/C(=O)OC)c1c(C)c(C)c2c(C)cc(C)cc(C)c1-2 | > 200 µM | 10 µM | –
COc1ccc(NC(=O)C(=O)C2CNC(=O)NC2=O)c(OC)c1 (centres undefined) | > 209 µM | > 209 µM | –
Cc1ccc2cc1NC(=O)N1CCN(CC1)C(=O)Nc1cc(ccc1C)NC(=O)N1CCN(CC1)C(=O)N2 | > 3.8 µM | > 3.8 µM | –
CCOC(=O)c1cc(=O)oc2c1N(C)c1ncccc1N2 | > 200 µM | 166 µM | –
CCN(CC)CCC1CCCCN1CC(=O)N1c2ccccc2NC(=O)c2ccccc21 (centres undefined) | > 200 µM | > 200 µM | –
Cc1ccc(S(=O)(=O)NCCSS(=O)(=O)c2ccc(C)cc2)cc1 | > 25.7 µM | > 25.7 µM | –
O=C(OC1CC(OC(=O)c2cc(O)c(O)c(O)c2)(C(=O)O)C[C@H](OC(=O)c2cc(O)c(O)c(O)c2)C1OC(=O)c1cc(O)c(O)c(O)c1)c1cc(O)c(O)c(O)c1 (some centres undefined) | – | – | inactive
COC(=O)CNCC1OC2OC(C)(C)OC2C1N=[N+]=[N-] (centres undefined) | > 200 µM | > 200 µM | –
COc1ccc(CCNCc2cccc(OC)c2OC)cc1OC | – | – | inactive
CCc1ccccc1NC(=O)C1=C(C)NC(C)=C(C(=O)Nc2ccccc2CC)C1c1ccc(NC(C)=O)cc1 | > 34.7 µM | > 34.7 µM | –
CCCC(C)SP(=S)(SC(C)CCC)SC(C)CCC (centres undefined) | > 200 µM | > 200 µM | –
CNNC1=NS(=O)(=O)c2cc(C#N)c(Cl)cc2S1 | – | – | inactive
Nc1ccc(OCC(O)N2C(=O)c3ccccc3C2=O)cc1 (centres undefined) | > 200 µM | > 200 µM | –
COC(=O)C1NC(C)(C(=O)OC)C2C(=O)NC(=O)C12 (centres undefined) | > 933 µM | > 933 µM | –
C=C(CN(CC)CC)C1(c2ccccc2)CC2(CCCC2)C(=O)O1 (centres undefined) | > 200 µM | 117 µM | –
COc1cc2c(cc1OC)C(=O)/C(=C/c1ccccc1)CC2 | > 200 µM | 117 µM | –
CC(=O)Nc1cc(N=Nc2ccc(N=Nc3ccc(NC(=O)c4ccc(N)cc4)cc3C)cc2C)c(S(=O)(=O)O)cc1N=Nc1ccc(S(=O)(=O)O)cc1 | 12.9 µM | 155 µM | –
NC(=S)N/N=C/c1cn(CCCl)c2ccccc12 | > 25.7 µM | 15.8 µM | –
